Assay results taken from patent US20110087153A1, “Transdermal Methods And Systems For The Delivery Of Rizatriptan” (priority 2009, published 2011).

Columns and labels:
[1] = cited from earlier work
[2] = Iontophoresis properties (charge and molecular weight analysis); assay type: physicochemical
Excerpt: This is because the diffusion and permeation through a hydrophilic membrane are dependent on molecular weight, radius of the molecule and the ionic drag the molecule has with the membrane.

[3] = Permeation through dialysis membrane (iontophoresis side-by-side diffusion cells); assay type: in vitro ADME
Protocol: Ionotophoresis side-by side diffusion cells with 9 mm diameter opening were obtained from PermeGear. The current clamps with PC control were provided by NuPathe, Inc. The temperature controller was from Henke. 2.0 mm diameter Zinc and Silver were obtained from Alpha Aesar. Sumatriptan, Zolmitriptan and Rizatriptan wore provided by NuPathe. Sodium chloride was obtained from Fisher Scientific,
A donor solution of 4% sumatriptan succinate in 0.9% NaCl was prepared. The receiver solution was 0.9% Sodium chloride in water. A Millipore 1000 mw cutoff membrane were used as the membrane. The glossy side of the membrane faced the donor compartment. The volume of the donor and receiver solution was 3.0 ml. 0.5 mm zinc wire was placed in the donor compartment and 2.0 mm silver wire was placed in the receiver compartment. The temperature of the apparatus was maintained at 33° C.
Ketoprofen was obtained from Spectrum Chemical. A 2% ketoprofen donor solution was made by dissolving in 0.1 N NaOH.
Three cells were clamped at 2 mAmps/cm^2 (1.27 mAmp/cell), 3 cells were clamped at 2 mAmp/cm^2 with the electrodes reversed, 3 cells (the control cells) were not clamped.
At each sampling point 2 ml was withdrawn from the receiver compartment and was replaced with 0.9% Sodium Chloride. Each sample was diluted using 0.9% NaCl to be within the standard curve. Absorbance was measured using a UV spectrophotometer with a 1 cm quartz cuvette at 282 nm. […]

[4] = Permeation of formulated product through human cadaver skin (iontophoresis, gel formulations); assay type: in vitro ADME; details: for Lag time: human cadaver skin, gel with 3.4% lauric acid, 2 mAmp/cm^2
Protocol: Brij 30 (Laureth-4) and adipic acid were obtained from Fisher Scientific. Eudragit E*PO was obtained from Evonik. Human cadaver skin was thawed in 0.9% NaCl for 30 minutes and patted dry. The skin was cut into 2 cm square sections. The epidermis was placed towards the donor compartment of a […] PermeGear side-by-side diffusion cell. The donor gel was placed in the donor compartment and 3 ml of normal saline solution was placed in the receiver compartment. Three cells were dosed with zolmitriptan with 3.4% lauric acid, three cells were dosed with rizatriptan with 3.4% lauric acid and two cells were dosed with rizatriptan with 3.4% Brij 30. The cells were clamped at 1.27 mAmp (2 mAmp/cm^2). Two ml of each receiver compartment was sampled every 30 minutes and replaced with normal saline solution. Each 2 ml sample was diluted 1 to 100 with water. Zolmitriptan and sumatriptan were assayed by UV at 222 nm Rizatriptan was assayed by HPLC as previously described. Additional analysis of the permeation data was conducted to find the amount of time to dose 5 mg of drug based on reasonable patch areas, and is shown in Table 4. […] However, as was observed by the previous permeation data, zolmitriptan would need a total of 43 minutes when the lag-time is considered compared to 19 minutes for rizatriptan when the lag time is considered.

[5] = Oxidation stability for rizatriptan under 2 mA current; assay type: physicochemical; details: for Rizatriptan concentration after exposure to 2 mAmp current: 0.9% NaCl
Protocol: A drug stock solution was made by dissolving 2.8 mg of rizatriptan benzoate in 0.9% NaCl to a volume of 50 mL. The working standard was prepared by diluting 0.5 ml of the stock solution to 10 ml with 0.9% NaCl. This produced a final concentration of 2.8 mcg/ml, for the working standard.
A solution was made by dissolving 0.5000 g of rizatriptan benzoate in 0.9% NaCl to a final volume of 50 mL. A 1 ml sample of this solution was kept for future assay. The remaining solution was placed in a beaker covered with parafilm Zinc wire (Cathode) and silver wire (anode) were passed through the parafilm and placed in the drug solution. Current of 2 mA was passed through the solution. Samples of 1 mL each were withdrawn every 30 minutes for 5.5 hours.
A 0.1 mL volume from each sample was diluted with 15 mL of 0.9% NaCl. A 1 ml volume of this dilution was then further diluted to 10 ml using 0.9% NaCl. Similarly, a 0.1 ml volume of the initial solution was diluted with 15 mL of 0.9% NaCl. A 1 ml volume of this dilution was then diluted to 10 ml with 0.9% NaCl.

[6] = Permeation of compound through human cadaver skin (iontophoresis, drug solutions); assay type: in vitro ADME; details: 2 mAmp/cm^2, 2% zolmitriptan, 4% rizatriptan, 4% sumatriptan solutions (FIG. 5)
Protocol: Human cadaver skin was obtained from Allosource. The skin was maintained at −70° C. prior to use. A portion of skin was thawed in 0.9% NaCl solution for 30 minutes. The skin was towel dried and cut into 2 cm square sections. The skin was mounted with the epidermis side toward the donor chamber in the Permeagear 0.9 cm diameter side-by-side diffusion cells.
A solution of 2% zolmitriptan was made by dissolving zolmitriptan in 0.1 N HCl. A 4% sumatriptan solution was made by dissolving sumatriptan in 0.1% NaCl. The 4% rizatriptan solution was made by dissolving the rizatriptan in 0.1% NaCl
Three cells were dosed with 2% zolmitriptan, three cells were dosed with 4% rizatriptan, and two cells were dosed with 4% sumatriptan. Normal saline solution was used as the receiver solution. The cells were clamped at 1.27 mAmp (2 mAmp/cm^2). 2 ml of each receiver compartment was sampled every 30 minutes and replaced with normal saline solution. One cell of the rizatriptan iontophoresis and one cell of sumatriptan iontophoresis were lost during the study due to holes in the skin.
Each 2 ml sample was diluted 1 to 100 with water. Zolmitriptan and sumatriptan were assayed by UV at 222 nm and 282 nm respectively. Rizatriptan was assay by HPLC as previously described.

[7] = 1000 mwco dialysis membrane, 33° C., UV assay
[8] = 1000 mwco dialysis membrane, 33° C., UV assay, listed as ketoprofen

For `CCCCCCCCCCCC(=O)O` [Lauric acid], the pKa [1] is listed as “around 4.9”.

In the case of `CNS(=O)(=O)Cc1ccc2[nH]cc(CCN(C)C)c2c1` [Sumatriptan], the “Ionizable Nitrogens” value [2] is reported as 2, the “MW/charge Ratio” value [2] is reported as 147.7 and the “Flux, Passive diffusion (No current)” value ([3]; not told) is reported as 0.58 mcg/cm^2/min. The “Flux, Reversed Electrodes (Current reversed at 2 mAmp/cm^2)” value (from here on “Flux, Reversed Electrodes”) ([3]; not told) was 0.11 mcg/cm^2/min.

In the case of `CN(C)CCc1c[nH]c2ccc(Cn3cncn3)cc12` [Rizatriptan], the “Ionizable Nitrogens” value [2] is reported as 3, the “MW/charge Ratio” value [2] is reported as 89.8 and the Lag time [4] is reported as 9 min. The “Total time to deliver 5 mg when the lag time is considered” value [4] was 19 min, the “Time in which a dose (5 mg) can be delivered” value ([4]; suggested by the results of the formulation studies) was “about 45 minutes” and the “Rizatriptan concentration after exposure to 2 mAmp current” value (shortened to “Rizatriptan concentration after exposure”) ([5]; 0 min) was 10.000 mg/mL. The “Exposure time after which degradation becomes significant” value ([5]; 2 mA current) was over 4 h, the Rate of degradation ([5]; 2 mA current, regression with all data) was about 16 µg/mL/min and the “Rizatriptan concentration after exposure” value ([5]; 30 min) was 10.041 mg/mL. For the same molecule, the “Rizatriptan concentration after exposure” value ([5]; 60 min) was 9.829 mg/mL, the “Rizatriptan concentration after exposure” value ([5]; 90 min) was 9.909 mg/mL and the “Rizatriptan concentration after exposure” value ([5]; 120 min) was 9.782 mg/mL. For the same molecule, the “Rizatriptan concentration after exposure” value ([5]; 150 min) was 9.942 mg/mL, the “Rizatriptan concentration after exposure” value ([5]; 180 min) was 9.875 mg/mL and the “Rizatriptan concentration after exposure” value ([5]; 210 min) was 9.801 mg/mL. For the same molecule, the “Rizatriptan concentration after exposure” value ([5]; 240 min) was 9.758 mg/mL, the “Rizatriptan concentration after exposure” value ([5]; 270 min) was 9.963 mg/mL and the “Rizatriptan concentration after exposure” value ([5]; 300 min) was 9.216 mg/mL. For the same molecule, the “Rizatriptan concentration after exposure” value ([5]; 330 min) was 9.389 mg/mL, the Degradation ([5]; during the 5.5 hour exposure to 2 mA current) was “approximately 7%” and the “Skin permeation by iontophoresis” value [6] was “greater skin permeation than sumatriptan and zolmitriptan”.

For `CC(C(=O)O)c1cccc(C(=O)c2ccccc2)c1` (centres unmarked) [Ketoprofen], the “Flux, Iontophoresis (2 mAmp/cm^2)” value [3, 7] was 8.24 mcg/cm^2/min, the “Flux, Passive diffusion (No current)” value [3, 7] was 7.41 mcg/cm^2/min and the “Flux, Reversed Electrodes” value [3, 7] was 11.66 mcg/cm^2/min. For the same molecule, the “Flux, Iontophoresis (2 mAmp/cm^2)” value [3, 8] was “less than the passive diffusion”, the “Flux, Passive diffusion (No current)” value [3, 8] was “substantial” and the “Flux, Reversed Electrodes” value [3, 8] was “greatest flux”. The “Ratio of Iontophoresis to Passive Diffusion” value ([3]; 1000 mwco dialysis membrane, UV assay) was 1.6.

With `CN(C)CCc1c[nH]c2ccc(C[C@H]3COC(=O)N3)cc12` [Zolmitriptan] the “Ionizable Nitrogens” value [2] was 3, the “MW/charge Ratio” value [2] was 92.8 and the Lag time [4] was 20 min. For the same molecule, the “Total time to deliver 5 mg when the lag time is considered” value [4] was 43 min, the “Flux, Passive diffusion (No current)” value ([3]; not told) was 3.32 mcg/cm^2/min and the “Flux, Reversed Electrodes” value ([3]; not told) was 0.05 mcg/cm^2/min. For the same molecule, the “Ratio of Iontophoresis to Passive Diffusion” value ([3]; not told) was 11.5 and the “Skin permeation by iontophoresis” value [6] was “very comparable to the permeation of sumatriptan via iontophoresis”.
